Entries after “also recorded” stand apart in the source; their conditions may differ. Marks after values point to notes of the source that are not given here.
Legend:
[1] = Stability tests in rat plasma (QC samples, HPLC-MS); details: n=5
Source text: Accuracy and precision were expressed by relative error (RE) and coefficient of variance (RSD), respectively.

[2] = Multiple component PK study in rat plasma after p.o. GDDP (HPLC-MS); details: for determination in rat plasma at the planned successive PK time points / detection in rat plasma: GDDP 0.8 g/kg p.o.; for determination in rat plasma at the planned successive PK time points: 5, 10, 15, 30, 45, 60, and 120 min, LOQ 1.0–1.4 ng/mL; for detection in rat plasma: at 5, 10, 15, 30, 45, or 60 min, LOD 0.5–0.7 ng/mL; for AUC(0-inf) / AUC(0-t) / MRT inf / MRT last / Tmax / Cmax / half-life: Sprague-Dawley, rat, plasma, po
[3] = Aqueous solubility test (vortexing in water); type: physicochemical; details: thermodynamic from solid; determined, water, 25 °C, 1 atm
Method: Aqueous solubility (S) test of the 17 ingredients was performed by vortexing 10 mg of each ingredient in […] water in a test tube at ambient temperature and 1 atm. After vortexing for 5 min, if the solution is clear, the tested object will be considered as soluble in water. In silico assessment of the physicochemical properties governing permeation and intestinal absorption was carried out for the 17 ingredients studied. Theory aqueous solubility (S) was calculated with ALOGPS 2.1 online software via the Virtual Computational Chemistry Laboratory service (Chemoinformatics Group, Neuherberg, Germany) (VCCLAB^1). The octanol–water partition coefficient (cLogP), the total hydrogen bond count (donors and acceptors), and topological polar surface area (TPSA) were determined using the Molinspiration Property Calculator (Molinspiration Cheminformatics, Bratislava, Slovak Republic^2). Lipinski’s rule of 5 was used to predict the permeability of the compound ([Lipinski et al., 2001]).

[4] = tested on: isoprenaline-induced MI in mice; test: In vivo anti-MI study: isoprenaline-induced myocardial injury (ECG, H&E histology); details: for Histopathology of heart tissue (H&E): 40 mg/kg; for ECG (lead II) findings on the fifth day of the trial: 40 mg/kg p.o., isoprenaline 5 mg/kg on days 4 and 5
Caco-2 cell monolayers = details: ref Lu et al., 2008, Liu et al., 2009, Hu et al., 2014, Bowles et al., 2017, cited from earlier work; for Papp(apical→basolateral) / Papp(basolateral→apical): Caco-2 cell monolayers, from literature; for apparent permeability in Caco-2 cell monolayers: previous results
[5] = 24h in auto-sampler vials, spiked 2 ng/mL
[6] = 24h in auto-sampler vials, spiked 400 ng/mL
[7] = 24h in auto-sampler vials, spiked 1600 ng/mL
[8] = Placing plasma for 6h at 4°C, spiked 2 ng/mL
[9] = Placing plasma for 6h at 4°C, spiked 400 ng/mL
[10] = Placing plasma for 6h at 4°C, spiked 1600 ng/mL
[11] = three freeze-thaw cycles, rat plasma, spiked 2 ng/mL
[12] = three freeze-thaw cycles, rat plasma, spiked 400 ng/mL
[13] = three freeze-thaw cycles, rat plasma, spiked 1600 ng/mL
[14] = 0.4 g/kg, Cmax, rat plasma, GDDP 0.4 g/kg p.o. (Low dose group), n=3
[15] = 0.4 g/kg, t1/2 β, rat plasma, GDDP 0.4 g/kg p.o. (Low dose group), n=3
[16] = 0.8 g/kg, Cmax (high / low plasma drug concentrations), rats, GDDP 0.4 and 0.8 g/kg p.o., classification
[17] = 0.8 g/kg, Cmax, rat plasma, GDDP 0.8 g/kg p.o. (High dose group), n=3
[18] = 0.8 g/kg, t1/2 β (fast / slow elimination type), rats, GDDP 0.4 and 0.8 g/kg p.o., classification
[19] = 0.8 g/kg, t1/2 β, rat plasma, GDDP 0.8 g/kg p.o. (High dose group), n=3
[20] = rat plasma, GDDP 0.4 g/kg p.o. (Low dose group), n=3
[21] = rat plasma, GDDP 0.8 g/kg p.o. (High dose group), n=3
[22] = 40 mg/kg p.o. for 7 days, isoprenaline-induced MI

## CC(C)=CCC[C@](C)(O[C@@H]1O[C@H](CO)[C@@H](O)[C@H](O)[C@H]1O)[C@H]1CC[C@]2(C)[C@@H]1[C@H](O)C[C@@H]1[C@@]3(C)CC[C@H](O)C(C)(C)[C@@H]3[C@@H](O[C@@H]3O[C@H](CO)[C@@H](O)[C@H](O)[C@H]3O[C@@H]3OC[C@@H](O)[C@H](O)[C@H]3O)C[C@]12C [R1, notoginsenoside R1]
[1]; [5]
  Stability: Measured: 1.89 ± 0.51 ng/mL
  Stability: RE: -5.63%
[1]; [6]
  Stability: Measured: 395.76 ± 7.32 ng/mL
  Stability: RE: -1.06%
[1]; [7]
  Stability: Measured: 1619.10 ± 82.22 ng/mL
  Stability: RE: 1.19%
[1]; [8]
  Stability: Measured: 1.75 ± 0.34 ng/mL
  Stability: RE: -12.56%
[1]; [9]
  Stability: Measured: 387.55 ± 18.40 ng/mL
  Stability: RE: -3.11%
[1]; [10]
  Stability: Measured: 1698.54 ± 105.94 ng/mL
  Stability: RE: 6.16%
[1]; [11]
  Stability: Measured: 2.15 ± 0.21 ng/mL
  Stability: RE: 7.54%
[1]; [12]
  Stability: Measured: 395.28 ± 15.09 ng/mL
  Stability: RE: -1.18%
[1]; [13]
  Stability: Measured: 1784.04 ± 71.20 ng/mL
  Stability: RE: 11.50%
[2]
  determination in rat plasma at the planned successive PK time points: could be determined
  detection in rat plasma: could be detected
[2]; 0.4 g/kg
  AUC(0-inf): 171 ± 92.6 ng·h/mL
  AUC(0-t): 146 ± 58.9 ng·h/mL
  MRT inf: 1.31 ± 0.11 h
  MRT last: 1.1 ± 0.12 h
  Tmax: 0.51 ± 0.7 h
[2]; [14]
  Cmax: 167 ± 48 ng/mL
[2]; [15]
  half-life: 34.2 min
[2]; 0.8 g/kg
  AUC(0-inf): 168 ± 119 ng·h/mL
  AUC(0-t): 120 ± 117 ng·h/mL
  MRT inf: 1.92 ± 1.59 h
  MRT last: 0.89 ± 0.14 h
  Tmax: 0.75 h
[2]; [16]
  Cmax: > 20 ng/mL
[2]; [17]
  Cmax: 259 ± 342 ng/mL
[2]; [18]
  half-life: < 120 min
[2]; [19]
  half-life: 27 min
[2]; [20]
  Cltot: 3.34 ± 1.81 L/h/kg
[2]; [21]
  Cltot: 10.89 ± 11.27 L/h/kg
[3]
  solubility at 5 min: > 10000 µg/mL
[4]; [22]
  Histopathology of heart tissue (H&E): remarkably severe histological damage with extensive myocardial lysis and architecture wrecking; also recorded: extremely severe histological damage with extensive myocardial lysis and architecture wrecking
[4]
  ECG (lead II) findings on the fifth day of the trial: T waves reversed or decreased
Caco-2 cell monolayers
  Papp(apical→basolateral): > 0.1^c ×10^-6 cm/s
  Papp(basolateral→apical): > 0.1^c ×10^-6 cm/s
  apparent permeability in Caco-2 cell monolayers: > 10^-7 cm/s

## CC(C)=CCC[C@](C)(O[C@@H]1O[C@H](CO[C@@H]2O[C@H](CO)[C@@H](O)[C@H](O)[C@H]2O)[C@@H](O)[C@H](O)[C@H]1O)[C@H]1CC[C@]2(C)[C@@H]1[C@H](O)C[C@@H]1[C@@]3(C)CC[C@H](O[C@@H]4O[C@H](CO)[C@@H](O)[C@H](O)[C@H]4O[C@@H]4O[C@H](CO)[C@@H](O)[C@H](O)[C@H]4O)C(C)(C)[C@@H]3CC[C@]12C [Rb1, ginsenoside Rb1]
[1]; [5]
  Stability: Measured: 1.97 ± 0.29 ng/mL
  Stability: RE: -1.62%
[1]; [6]
  Stability: Measured: 386.10 ± 20.53 ng/mL
  Stability: RE: -3.47%
[1]; [7]
  Stability: Measured: 1540.64 ± 55.53 ng/mL
  Stability: RE: -3.71%
[1]; [8]
  Stability: Measured: 1.66 ± 0.17 ng/mL
  Stability: RE: -16.86%
[1]; [9]
  Stability: Measured: 376.87 ± 18.97 ng/mL
  Stability: RE: -5.78%
[1]; [10]
  Stability: Measured: 1647.48 ± 31.81 ng/mL
  Stability: RE: 2.97%
[1]; [11]
  Stability: Measured: 1.75 ± 0.23 ng/mL
  Stability: RE: -12.42%
[1]; [12]
  Stability: Measured: 394.28 ± 21.32 ng/mL
  Stability: RE: -1.43%
[1]; [13]
  Stability: Measured: 1601.88 ± 26.56 ng/mL
  Stability: RE: 0.12%
[2]
  determination in rat plasma at the planned successive PK time points: could be determined
  detection in rat plasma: could be detected
[2]; 0.4 g/kg
  AUC(0-inf): 1930 ± 1300 ng·h/mL
  AUC(0-t): 818 ± 272 ng·h/mL
  MRT inf: 36.6 ± 17.7 h
  MRT last: 11.42 ± 0.11 h
  Tmax: 3.25 ± 3.89 h
[2]; [14]
  Cmax: 57 ± 27.3 ng/mL
[2]; [15]
  half-life: 1380 ± 742 min
[2]; 0.8 g/kg
  AUC(0-inf): 1350 ± 486 ng·h/mL
  AUC(0-t): 998 ± 200 ng·h/mL
  MRT inf: 17.1 ± 4.98 h
  MRT last: 9.63 ± 0.6 h
  Tmax: 3.34 ± 3.05 h
[2]; [16]
  Cmax: > 20 ng/mL
[2]; [17]
  Cmax: 80.3 ± 19.2 ng/mL
[2]; [18]
  half-life: > 156 min
[2]; [19]
  half-life: 649 ± 242 min
[2]; [20]
  Cltot: 1.08 ± 0.72 L/h/kg
[2]; [21]
  Cltot: 2.59 ± 0.81 L/h/kg
[2]; rats, p.o. GDDP, P < 0.05
  systematic exposure (AUC0-∞), times higher than those of CTS and DHTS: 84–1137 times
  systematic exposure (AUC0-∞), times higher than those of Rd, R1, Rg1, TS IIA, and TS I: 3.5–30 times
[3]
  solubility at 5 min: > 10000 µg/mL
[4]; [22]
  anti-MI effect (overall conclusion): favorable anti-MI effect
  Histopathology of heart tissue (H&E): less severe histological damage with mild cell distortion, edema, and good continuity with adjacent myofibrils
[4]
  ECG (lead II) findings on the fifth day of the trial: T waves reversed or decreased
Caco-2 cell monolayers
  Papp(apical→basolateral): > 0.1^c ×10^-6 cm/s
  Papp(basolateral→apical): > 0.1^c ×10^-6 cm/s
  apparent permeability in Caco-2 cell monolayers: > 10^-7 cm/s

Source: publication PMC6308302, “Identification of Pharmacokinetic Markers for Guanxin Danshen Drop Pills in Rats by Combination of Pharmacokinetics, Systems Pharmacology, and Pharmacodynamic Assays” (Frontiers in Pharmacology, 2018)
